In US8288371B2, “Ortho pyrrolidine, benzyl-substituted heterocycle CCR1 antagonists for autoimmune diseases and inflammation” (Pharmacopeia, LLC, priority 2007, dated 2012):

biological target: T1, human CCR1 (Homo sapiens, UniProt P32246); assay: CCR1 binding protocol (SPA, [125I]-MIP-1α displacement); settings: cell membrane expressing human CCR1, 0.1 nM [125I]-MIP-1α, 4 hours at ambient temperature; read-out: Relative potency (IC50)
T1 sequence (P32246 1-355): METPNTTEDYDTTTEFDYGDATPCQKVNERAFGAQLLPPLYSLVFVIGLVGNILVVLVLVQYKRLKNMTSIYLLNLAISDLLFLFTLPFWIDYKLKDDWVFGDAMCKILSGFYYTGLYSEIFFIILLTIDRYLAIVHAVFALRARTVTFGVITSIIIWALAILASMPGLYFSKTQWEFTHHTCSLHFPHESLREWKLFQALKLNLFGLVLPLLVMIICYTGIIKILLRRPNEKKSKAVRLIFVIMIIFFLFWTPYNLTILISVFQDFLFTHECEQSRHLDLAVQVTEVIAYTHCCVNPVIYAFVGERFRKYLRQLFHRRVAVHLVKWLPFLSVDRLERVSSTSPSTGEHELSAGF
Method in brief: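 Displacement of 0.1 nM [125I]-MIP-1α (final) from membranes expressing human CCR1 was measured by scintillation proximity after 4 h at ambient temperature. Conditions: pH 7.4 Tris buffer with 0.1% BSA and MnCl, and 0.5 μg membrane per well. Compounds were tested as a 10-step ½-log series from a 10 mM DMSO stock to derive IC50.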

Row | IC50 [µM] | SMILES
1 | < 0.05 | Cc1nnc([C@H]2CCCN2C(=O)Nc2ccc(C(F)(F)F)nc2Cl)n1Cc1ccc(Cl)cc1 [Compound 524]
2 | 0.05 to 0.5 | Cc1nnc([C@H]2CC(C)(O)CN2C(=O)N[C@H]2CCOc3cc(C(F)(F)F)ccc32)n1Cc1ccc(Cl)cc1 (stereo partly shown) [Compound 526]
3 | 0.05 to 0.5 | Cc1nnc([C@H]2CCCN2/C(=N/C#N)Nc2ccc(Cl)cc2F)n1Cc1ccc(Cl)cc1 [Compound 529]
4 | 0.05 to 0.5 | Cc1nnc([C@H]2CCCN2c2c(N[C@H]3CCOc4cc(C(F)(F)F)ccc43)c(=O)c2=O)n1Cc1ccc(Cl)cc1 [Compound 530]
5 | 0.05 to 0.5 | Cc1nc(C(F)(F)F)ccc1NC(=O)N1CCC[C@@H]1c1nnc(C)n1Cc1ccc(F)cc1 [Compound 531]
6 | 0.05 to 0.5 | Cc1nnc([C@H]2CC(C)(O)CN2C(=O)Nc2ccc(Cl)cc2F)n1Cc1ccc(Cl)cc1 (stereo partly shown) [Compound 532]
7 | 0.05 to 0.5 | Cc1nnc([C@H]2CCCN2C(=O)C(C)c2cc(C(F)(F)F)ccc2Cl)n1Cc1ccc(Cl)cc1 (stereo partly shown) [Compound 533]
8 | 0.05 to 0.5 | Cc1nnc([C@H]2CCCN2C(=O)Nc2ccc(Cl)cc2F)n1Cc1ccc(Br)cc1 [Compound 534]
9 | < 0.05 | Cc1nc(C(F)(F)F)ccc1NC(=O)N1CCC[C@@H]1c1nnc(C)n1Cc1ccc(Br)cc1 [Compound 535]
10 | 0.5 to 5 | Cc1nnc([C@H]2CCCN2c2c(Nc3ccc(Cl)cc3F)c(=O)c2=O)n1Cc1ccc(Cl)cc1 [Compound 536]
11 | < 0.05 | Cc1nnc([C@H]2CCCN2C(=O)N[C@H]2CCOc3cc(C(F)(F)F)ccc32)n1Cc1ccc(Br)cc1 [Compound 537]
12 | 0.5 to 5 | Cc1nc(C(F)(F)F)ccc1NC(=O)N1CCC[C@@H]1c1nnc(C)n1Cc1cccc(Cl)c1 [Compound 538]
13 | 0.05 to 0.5 | Cc1nc(C(F)(F)F)ccc1N/C(=N\C#N)N1CCC[C@@H]1c1nnc(C)n1Cc1ccc(Cl)cc1 [Compound 539]
14 | 0.5 to 5 | Cc1nnc([C@H]2CCCN2C(=O)N[C@H]2CCOc3cc(C(F)(F)F)ccc32)n1Cc1cccc(Br)c1 [Compound 540]
15 | 0.05 to 0.5 | COC1C[C@H](c2nnc(C)n2Cc2ccc(Cl)cc2)N(C(=O)Nc2ccc(Cl)cc2F)C1 (stereo partly shown) [Compound 541]
16 | 0.05 to 0.5 | COC1C[C@H](c2nnc(C)n2Cc2ccc(Cl)cc2)N(C(=O)Nc2ccc(C(F)(F)F)nc2C)C1 (stereo partly shown) [Compound 542]
17 | 0.05 to 0.5 | COC1C[C@H](c2nnc(C)n2Cc2ccc(Cl)cc2)N(C(=O)N[C@H]2CCOc3cc(C(F)(F)F)ccc32)C1 (stereo partly shown) [Compound 543]
18 | 0.05 to 0.5 | Cc1nc(C(F)(F)F)ccc1NC(=O)N1CC2CC2C1c1nnc(C)n1Cc1ccc(Cl)cc1 (stereo not shown) [Compound 544]
19 | 0.05 to 0.5 | Cc1nnc(C2C3CC3CN2C(=O)Nc2ccc(Cl)cc2F)n1Cc1ccc(Cl)cc1 (stereo not shown) [Compound 545]
20 | 0.05 to 0.5 | Cc1nnc(C2C3CC3CN2C(=O)N[C@H]2CCOc3cc(C(F)(F)F)ccc32)n1Cc1ccc(Cl)cc1 (stereo partly shown) [Compound 546]
21 | 0.05 to 0.5 | Cc1nnc(C2C3CC3CN2C(=O)NC(c2ccccc2)c2ccccc2)n1Cc1ccc(Cl)cc1 (stereo not shown) [Compound 547]
22 | 0.05 to 0.5 | Cc1nc(C(F)(F)F)ccc1NC(=O)N1CCC[C@@H]1c1ncnn1Cc1ccc(Cl)cc1 [Compound 548]

Row | IC50 [µM] | SMILES
23 | < 0.05 | Cc1nc(C(F)(F)F)ccc1NC(=O)N1CCC[C@@H]1c1nnc(Cl)n1Cc1ccc(Cl)cc1 [Compound 549]
24 | 0.5 to 5 | Cc1nnc([C@H]2CCCN2C(=O)Nc2ccc(-c3ncccn3)cc2)n1Cc1ccc(Cl)cc1 [Compound 550]
25 | 0.5 to 5 | Cc1nnc([C@H]2CCCN2C(=O)Nc2ccc(OC3CCOCC3)nc2)n1Cc1ccc(Cl)cc1 [Compound 551]
26 | < 0.05 | O=C(Nc1ccc(Cl)cc1F)N1CCC[C@@H]1c1nnc(Cl)n1Cc1ccc(Cl)cc1 [Compound 552]
27 | 0.5 to 5 | Cc1nc(C(F)(F)F)ccc1NC(=O)N1CCC[C@@H]1c1nnc(C)n1Cc1cccc(Br)c1 [Compound 553]
28 | 0.05 to 0.5 | Cc1noc(C)c1NC(=O)N1CCC[C@@H]1c1nnc(C)n1Cc1ccc(Br)cc1 [Compound 554]
29 | 0.5 to 5 | Cc1noc(C)c1Nc1c(N2CCC[C@@H]2c2nnc(C)n2Cc2ccc(Cl)cc2)c(=O)c1=O [Compound 555]
30 | < 0.05 | O=C(Nc1ccc(Cl)cc1F)N1CCC[C@@H]1c1nncn1Cc1ccc(Cl)cc1 [Compound 556]
31 | < 0.05 | Cc1nc(C(F)(F)F)ccc1NC(=O)N1CCC[C@@H]1c1nncn1Cc1ccc(Cl)cc1 [Compound 557]
32 | 0.5 to 5 | Cc1nnc([C@H]2C[C@@H](O)CN2C(=O)Nc2ccc(OC3CCOCC3)nc2)n1Cc1ccc(Cl)cc1 [Compound 558]
33 | < 0.05 | Cc1cc(C)c(S(=O)(=O)N(C)C)cc1NC(=O)N1CCC[C@@H]1c1nnc(C)n1Cc1ccc(Br)cc1 [Compound 559]
34 | < 0.05 | CC[C@H](NC(=O)N1CCC[C@@H]1c1nnc(C)n1Cc1ccc(F)cc1)c1ccc(C(F)(F)F)nc1 [Compound 560]
35 | < 0.05 | CC[C@H](NC(=O)N1CCC[C@@H]1c1nnc(C)n1Cc1ccc(Br)cc1)c1ccc(C(F)(F)F)nc1 [Compound 561]
36 | 0.05 to 0.5 | CC[C@H](Nc1c(N2CCC[C@@H]2c2nnc(C)n2Cc2ccc(Cl)cc2)c(=O)c1=O)c1ccc(C(F)(F)F)nc1 [Compound 562]
37 | < 0.05 | Cc1nc(C(F)(F)F)ccc1NC(=O)N1CC2CC2[C@@H]1c1nnc(C)n1Cc1ccc(Cl)cc1 (stereo partly shown) [Compound 563]
38 | 0.05 to 0.5 | Cc1noc(C)c1NC(=O)N1CC2CC2[C@@H]1c1nnc(C)n1Cc1ccc(Cl)cc1 (stereo partly shown) [Compound 564]
39 | 0.05 to 0.5 | Cc1nnc([C@H]2C3CC3CN2C(=O)Nc2ccc(Cl)cc2F)n1Cc1ccc(Cl)cc1 (stereo partly shown) [Compound 565]
40 | 0.05 to 0.5 | Cc1nc(C(F)(F)F)ccc1NC(=O)N1CCC[C@@H]1c1ncc(C)n1Cc1ccc(Cl)cc1 [Compound 566]
41 | 0.05 to 0.5 | Cc1cnc([C@H]2CCCN2C(=O)Nc2ccc(Cl)cc2F)n1Cc1ccc(Cl)cc1 [Compound 567]
42 | 0.05 to 0.5 | Cc1nnc([C@H]2CCCN2C(=O)Nc2ccc(Cl)c(C(F)(F)F)c2)n1Cc1ccc(Br)cc1 [Compound 568]
43 | 0.05 to 0.5 | Cc1nnc([C@H]2CC(F)CN2C(=O)NC(c2ccccc2)c2ccccc2)n1Cc1ccc(Cl)cc1 (stereo partly shown) [Compound 569]
44 | < 0.05 | Cc1nnc([C@H]2CC(F)CN2C(=O)NCc2ccc(Cl)c(Cl)c2)n1Cc1ccc(Cl)cc1 (stereo partly shown) [Compound 570]

Row | IC50 [µM] | SMILES
45 | 0.05 to 0.5 | Cc1nnc([C@H]2CC(F)CN2C(=O)Nc2ccc(Cl)cc2F)n1Cc1ccc(Cl)cc1 (stereo partly shown) [Compound 571]
46 | 0.05 to 0.5 | Cc1nnc([C@H]2CC(F)CN2C(=O)Nc2ccc(Cl)c(C(F)(F)F)c2)n1Cc1ccc(Cl)cc1 (stereo partly shown) [Compound 572]
47 | < 0.05 | Cc1noc(-c2ccccc2)c1NC(=O)N1CC(F)C[C@@H]1c1nnc(C)n1Cc1ccc(Cl)cc1 (stereo partly shown) [Compound 573]
48 | < 0.05 | Cc1nnc([C@H]2CC(F)CN2C(=O)N[C@H]2CCOc3cc(C(F)(F)F)ccc32)n1Cc1ccc(Cl)cc1 (stereo partly shown) [Compound 574]
49 | < 0.05 | Cc1noc(C)c1NC(=O)N1CC(F)C[C@@H]1c1nnc(C)n1Cc1ccc(Cl)cc1 (stereo partly shown) [Compound 575]
50 | 0.05 to 0.5 | Cc1nnc([C@H]2CC(F)CN2C(=O)NC2C[C@@H]2c2ccccc2)n1Cc1ccc(Cl)cc1 (stereo partly shown) [Compound 576]
51 | < 0.05 | CC[C@H](NC(=O)N1CCC[C@@H]1c1nnc(C)n1Cc1ccc(F)cc1)c1ccc(C(F)(F)F)cc1 [Compound 577]
52 | < 0.05 | CC[C@H](NC(=O)N1CCC[C@@H]1c1nnc(C)n1Cc1ccc(Br)cc1)c1ccc(C(F)(F)F)cc1 [Compound 578]
53 | 0.5 to 5 | Cc1nnc([C@H]2CCCN2c2c(Nc3ccc(F)cc3F)c(=O)c2=O)n1Cc1ccc(Cl)cc1 [Compound 579]
54 | < 0.05 | Cc1nc(C(F)(F)F)ccc1NC(=O)N1CC(F)C[C@@H]1c1nnc(C)n1Cc1ccc(Cl)cc1 (stereo partly shown) [Compound 580]
55 | 0.05 to 0.5 | Cc1cc(C#N)ccc1NC(=O)N1CC(F)C[C@@H]1c1nnc(C)n1Cc1ccc(Cl)cc1 (stereo partly shown) [Compound 581]
56 | 0.05 to 0.5 | CCc1nnc([C@H]2CCCN2C(=O)Nc2c(C)noc2C)n1Cc1ccc(Cl)cc1 [Compound 582]
57 | < 0.05 | CCc1nnc([C@H]2CCCN2C(=O)Nc2ccc(Cl)cc2F)n1Cc1ccc(Cl)cc1 [Compound 583]
58 | < 0.05 | CCc1nnc([C@H]2CCCN2C(=O)Nc2ccc(C(F)(F)F)nc2C)n1Cc1ccc(Cl)cc1 [Compound 584]
59 | < 0.05 | CC[C@H](NC(=O)N1CCC[C@@H]1c1nnc(C)n1Cc1ccc(Br)cc1)c1cc2ccccc2o1 [Compound 585]
60 | < 0.05 | CC[C@H](NC(=O)N1CCC[C@@H]1c1nnc(C)n1Cc1ccc(F)cc1)c1cc2ccccc2o1 [Compound 586]
61 | < 0.05 | Cc1cc(C)c(S(=O)(=O)N(C)C)cc1NC(=O)N1CCC[C@@H]1c1nnc(C)n1Cc1ccc(F)cc1 [Compound 587]
62 | 0.05 to 0.5 | CC[C@H](Nc1c(N2CCC[C@@H]2c2nnc(C)n2Cc2ccc(Cl)cc2)c(=O)c1=O)c1cc2ccccc2o1 [Compound 588]
63 | 0.05 to 0.5 | CC[C@H](Nc1c(N2CCC[C@@H]2c2nnc(C)n2Cc2ccc(Cl)cc2)c(=O)c1=O)c1ccc(C(F)(F)F)cc1 [Compound 589]
64 | 0.05 to 0.5 | Cc1onc(NC(=O)N2CCC[C@@H]2c2nnc(C)n2Cc2ccc(Cl)cc2)c1F [Compound 590]

Row | SMILES | IC50 [µM]
65 | Cc1nnc([C@H]2CCCN2C(=O)Nc2ccc(C#N)c(C(F)(F)F)c2)n1Cc1ccc(Cl)cc1 [Compound 525] | 0.05 to 0.5
66 | Cc1c(NC(=O)N2CCC[C@@H]2c2nnc(C)n2Cc2ccc(Cl)cc2)ccc(C#N)c1C(F)(F)F [Compound 527] | < 0.05
67 | Cc1c(NC(=O)N2CCC[C@@H]2c2nnc(C)n2Cc2ccc(Cl)cc2)ccc(C#N)c1Cl [Compound 528] | < 0.05
